# Data as given in patent publication US10143691B2, “Pathogenic control of apoptosis” (CSIR, priority 2014, dated 2018).
# Entries after “also recorded” stand apart in the source; their conditions may differ. Like-named read-outs stand apart in the source and are kept apart here.
# Assays:
# [1] = tested on: hnRNP-K; test: Immunofluorescence of hnRNP-K cellular location in Ghost(3) cells; assay type: cell-based
# Procedure: (§1) For each experiment, Ghost(3) cells or IPSC-derived primary macrophages were infected or treated with 500 nM Doxorubicin on coverslips, fixed for 10 mins in fresh 4% paraformaldehyde at room temperature, then washed 3 times in PBS and permeabilised for 10 mins in ice-cold methanol at […]. Coverslips were washed once in PBS and incubated in blocking buffer (5% goat serum, 0.3% TritonX100 in PBS) for 60 mins at room temperature. Cells were incubated in primary antibody solution (1% BSA, 0.3% Triton X100 in PBS) overnight at 4° C. Double strand breaks were detected using rabbit polyclonal anti-phosphohistone H2A.X Ser139 (Cell Signaling). Activated ATM was detected using rabbit monoclonal anti-phosphoATM Ser1981 (Cell Signaling). The ability of p53 to regulate apoptosis was detected using rabbit polyclonal antiphosphop53 Ser46 (Cell Signaling). Viral p24 was detected using mouse monoclonal anti-HIV1p24 (AIDS Research and Reference Reagent Program, Division of AIDS, NIAID, NIH). HuR was detected using mouse monoclonal anti-HuR 3A2 (Santa Cruz Biotechnology). hnRNPK was detected using goat polyclonal anti-hnRNPK P20 (Santa Cruz Biotechnology). Coverslips were washed 3 times (5 mins each on an orbital shaker) with wash buffer (0.05% Tween20 in PBS), followed by incubation with secondary antibodies conjugated to either Atto550 or Atto565 or Atto647 for 60 mins at room temperature. Coverslips were washed 3 times (5 mins each on an orbital shaker) with wash buffer (0.05% Tween20 in PBS). Coverslips were incubated in equilibration buffer (0.4% glucose, 2×SCC) for 5 mins and counter stained with 1 mg/ml DAPI (4′,6-diamidino-2-phenylindole; Life Technologies). Coverslips were mounted in glox buffer (3.7 mg/ml glucose oxidase, 1 U catalase) and imaged.
# For each experiment, cells were infected or treated with drugs on coverslips, fixed for 10 mins in fresh 4% paraformaldehyde at room temperature, then washed 3 times in PBS and permeabilised for 10 mins in ice-cold methanol at −20° C. Coverslips were washed once in PBS and incubated in blocking buffer (5% goat serum, 0.3% Triton-X100 in PBS) for 60 mins at room temperature. Cells were incubated in primary antibody solution (1% BSA, 0.3% Triton X-100 in PBS) overnight at 4° C. Double strand breaks were detected using rabbit polyclonal anti-phospho-histone H2A.X Ser139 (Cell Signaling). Activated ATM was detected using rabbit monoclonal anti-phospho-ATM Ser1981 (Cell Signaling). The ability of p53 to regulate apoptosis was detected using rabbit polyclonal anti-phospho-p53 Ser46 (Cell Signaling). Viral p24 was detected using mouse monoclonal anti-HIV-1-p24 (AIDS Research and Reference Reagent Program, Division of AIDS, NIAID, NIH). HuR was detected using mouse monoclonal anti-HuR 3A2 (Santa Cruz Biotechnology). hnRNP-K was detected using goat polyclonal anti-hnRNP-K P-20 (Santa Cruz Biotechnology). Coverslips were washed 3 times (5 mins each on an orbital shaker) with wash buffer (0.05% Tween-20 in PBS), followed by incubation with secondary antibodies conjugated to either Atto-550 or Atto-565 or Atto-647 for 60 mins at room temperature. Coverslips were washed 3 times (5 mins each on an orbital shaker) with wash buffer (0.05% Tween-20 in PBS). Coverslips were incubated in equilibration buffer (0.4% glucose, 2×SCC) for 5 mins and counter stained with 1 mg/ml DAPI (4′,6-diamidino-2-phenylindole; Life Technologies). Coverslips were mounted in glox buffer (3.7 mg/ml glucose oxidase, 1 U catalase) and imaged.
# [2] = tested on: Ghost(3) cells; assay type: cell-based; settings: for apoptosis of HIV-infected cells: HIV-infected Ghost(3) cells exposed to inhibitor (10 μM), 30 hours post-infection
# Procedure: Apoptosis was measured in Ghost(3) cells 30 hours post-infection or drug treatment using the NucView™ 488 Caspase3 Assay Kit (Biotium) in a 96 well format. Data was analysed in MATLAB using a probabilistic region method to measure cell attachment and expressed as percentage cell survival. […] An average of 3000 cells per condition were analysed with the exception of cells treated with Doxorubicin followed by HIV-infection (FIG. 3), cells transfected with lincRNAp21 overexpression constructs followed by Doxorubicin treatment, and cells transfected with full-length lincRNAp21, infected with HIV1 and treated with Nutlin3 (FIG. 25). These latter conditions ( ? ) yielded too few attached cells (<20) at 30 hours for similar analysis.
# Apoptosis was measured in Ghost(3) cells 30 hours post-infection or drug treatment using the NucView™ 488 Caspase-3 Assay Kit (Biotium) in a 96 well format. Data was analysed in MATLAB using a probabilistic region method to measure cell attachment and expressed as percentage cell survival. […] An average of 3000 cells per condition were analysed with the exception of cells treated with Doxorubicin followed by HIV-infection (FIG. 27), cells transfected with lincRNA-p21 overexpression constructs followed by Doxorubicin treatment (FIG. 36), and cells transfected with full-length lincRNA-p21, infected with HIV-1 and treated with Nutlin3 (FIG. 45). These latter conditions ( ? ) yielded too few attached cells (<20) at 30 hours for similar analysis.
# [3] = tested on: HuR; test: Immunofluorescence of HuR cellular location in Ghost(3) cells; assay type: cell-based; settings: HIV-infected Ghost(3) cells with inhibitor added (10 μM)
# Procedure: as §1, with “Coverslips were washed 3 times (5 mins each on an orbital shaker) with wash buffer (0.05% Tween20 in PBS), followed by incubation with secondary antibodies conjugated to either Atto550 or Atto565 or Atto647 for 60 mins at room temperature. Coverslips were washed 3 times (5 mins each on an orbital shaker) with wash buffer (0.05% Tween20 in PBS). Coverslips were incubated in equilibration buffer (0.4% glucose, 2×SCC) for 5 mins and counter stained with 1 mg/ml DAPI (4′,6-diamidino-2-phenylindole; Life Technologies). Coverslips were mounted in glox buffer (3.7 mg/ml glucose oxidase, 1 U catalase) and imaged.” left out
# (§2) For each experiment, cells were infected or treated with drugs on coverslips, fixed for 10 mins in fresh 4% paraformaldehyde at room temperature, then washed 3 times in PBS and permeabilised for 10 mins in ice-cold methanol at −20° C. […] Double strand breaks were detected using rabbit polyclonal anti-phospho-histone H2A.X Ser139 (Cell Signaling). Activated ATM was detected using rabbit monoclonal anti-phospho-ATM Ser1981 (Cell Signaling). The ability of p53 to regulate apoptosis was detected using rabbit polyclonal anti-phospho-p53 Ser46 (Cell Signaling). Viral p24 was detected using mouse monoclonal anti-HIV-1-p24 (AIDS Research and Reference Reagent Program, Division of AIDS, NIAID, NIH). HuR was detected using mouse monoclonal anti-HuR 3A2 (Santa Cruz Biotechnology). hnRNP-K was detected using goat polyclonal anti-hnRNP-K P-20 (Santa Cruz Biotechnology). […]
# [4] = tested on: H2A.XpSer139; test: Immunofluorescence staining of double strand breaks (H2A.XpSer139); assay type: cell-based; settings: HIV-1 infected cells treated with 10 μM drug
# Procedure: as §1
# as §2, with “C. Coverslips were washed once in PBS and incubated in blocking buffer (5% goat serum, 0.3% Triton-X100 in PBS) for 60 mins at room temperature.” for “C.”
# [5] = tested on: lincRNAp21; test: lincRNA-p21 expression by RNA FISH spot counts and quantitative RT-PCR; assay type: cell-based, human; settings: HIV-infected Ghost(3) cells, qRT-PCR relative to HPRT
# Procedure: RNA FISH on Ghost(3) cells was performed according to Raj, 2008 and on primary macrophages according to Schaffer, 2013. For both methods 48 20mer probes (Biosearch) targeted to human lincRNAp21 were synthesised baring a […] C6dT. The amino group was subsequently conjugated to the following NHSester dyes: ATTO565, ATTO647N (ATTOTEC) or Alexa Fluor 647 (Invitrogen). Briefly, oligonucleotide probes were ethanol precipitated and resuspended in 0.1 M sodium tetraborate (Sigma). Approximately 0.3 mg of the NHSester dye (ATTOTEC) was dissolved in dimethyl sulphoxide (Sigma). The dye solution was added to the probe solution and incubated overnight in the dark at 37° C. Following the conjugation reaction, the probes were ethanol precipitated overnight, and resuspended in 0.1 M triethyl ammonium (Sigma). Conjugated probes were separated and purified to enrich for dyeconjugated probes by reverse phase HPLC on a C18 column. […]
# For each experiment, Ghost(3) cells or IPSO-derived primary macrophages were infected or treated with 500 nM Doxorubicin over time and total RNA was extracted from cells using TRIzol® (Life Technologies), treated with RQ1 RNase-free DNase (Promega) and reverse transcribed using SuperScript III Reverse Transcriptase (Life Technologies). Quantitative RTPCR was performed using Sso Fast EvaGreen™ supermix (BioRad) on a BioRad CFX96 real-time PCR detection system. […]
# [6] = tested on: HIV-1; test: HIV-1 infection/replication in Ghost(3) reporter cells (LTR-driven GFP expression); assay type: cell-based; settings: Ghost(3) cells exposed to HIV-1 and treated
# Procedure: Viral stocks were titred using TZMBI cells and used to infect Ghost(3) cells using an MOI=1.0, or IPSO-derived macrophages using an MOI=0.5. Where indicated, Ghost(3) cells were treated with 10 μM of either Raltegravir, Maraviroc, Tenofovir (AIDS Research and Reference Reagent Program, Division of AIDS, NIAID, NIH) or Nutlin3a (Sigma) for up to 48 hours.
# Viral stocks were titred using TZM-BI cells and used to infect Ghost(3) cells using an MOI=1.0, or IPSO-derived macrophages using an MOI=0.5. Where indicated, cells were treated with 10 μM of either Raltegravir, Maraviroc, Tenofovir (AIDS Research and Reference Reagent Program, Division of AIDS, NIAID, NIH) or Doxorubicin (Sigma-Aldrich), or Nutlin3a (Sigma-Aldrich), or MAP2K1 inhibitor (U-0126) or ERK2 inhibitor (FR180204) for up to 48 hours.
# [7] = cells transfected 24 hours with full-length or truncated lincRNA-p21, then Nutlin3a, absence of HIV-1
# [8] = full-length lincRNA-p21 transfected 24 hours, HIV-1 infected 24 hours, then Nutlin3a
# [9] = truncated lincRNA-p21 transfected 24 hours, HIV-1 infected 24 hours, then Nutlin3a
# [10] = HIV-infected Ghost(3) cells exposed to MAP2K1 or ERK2 inhibitor (10 μM), 30 hours post-infection
# [11] = Ghost(3) cells exposed to HIV-1 and concurrently treated with 10 μM antiretroviral
Compound,"cellular location of hnRNP-K [1, 10]",apoptosis of HIV-infected cells [2],cellular location of HuR [3],"cellular location of hnRNP-K [1, 11]",HIV-1 infection / replication (GFP expression) [6],further results
"COc1ccc(C2=NC(c3ccc(Cl)cc3)C(c3ccc(Cl)cc3)N2C(=O)N2CCNC(=O)C2)c(OC(C)C)c1 (single isomer, unassigned; (-)) [Nutlin3a, (−)-4-(4,5-Bis(4-chlorophenyl)-2-(2-isopropoxy-4-methoxyphenyl)-4,5-dihydro-1H-imidazole-1-carbonyl)piperazin-2-one]",–,–,–,–,–,"cellular location of hnRNP-K ([1]; Ghost(3) cells, Nutlin3a (10 μM) added 24 hours post HIV-1 infection): nuclear localisation of hnRNP-K at 48 hours in GFP-positive cells only; also recorded: nuclear localisation of hnRNPK in HIV-infected cells only; also recorded: nuclear localisation of hnRNP-K in HIV-infected cells only; also recorded: nuclear localisation of hnRNPK at 48 hours in GFP-positive cells only; cellular location of hnRNP-K ([1]; Ghost(3) cells, drug only, no HIV infection): cytoplasmic hnRNP-K; also recorded: no nuclear hnRNPK; also recorded: no nuclear hnRNP-K; also recorded: cytoplasmic hnRNPK; cellular location of hnRNP-K ([1]; Nutlin3a added prior to HIV1 infection): no nuclear hnRNPK was observed; cellular location of hnRNP-K [1, 7]: cytoplasmic hnRNPK; also recorded: cytoplasmic hnRNP-K; cellular location of hnRNP-K [1, 8]: showed nuclear hnRNP-K; also recorded: show nuclear hnRNPK; cellular location of hnRNP-K [1, 9]: show nuclear hnRNP-K; also recorded: also showed nuclear hnRNPK; also recorded: also showed nuclear hnRNP-K; also recorded: show nuclear hnRNPK; apoptosis [2, 7]: no apoptosis; apoptosis [2, 8]: undergo apoptosis within 24 hours of Nutlin3a addition; also recorded: underwent apoptosis; apoptosis [2, 9]: do not undergo apoptosis; also recorded: did not undergo apoptosis"
"Nc1n[nH]c2nnc(-c3c(-c4ccccc4)nn4ccccc34)cc12 [ERK2 inhibitor, 5-(2-phenylpyrazolo[1,5-a]pyridin-3-yl)-1H-pyrazolo[3,4-c]pyridazin-3-amine]",strong nuclear localisation of hnRNP-K,infected cells underwent apoptosis,Cytoplasmic HuR is not observed; also recorded: HIV-1 able to sequester HuR in the nucleus,–,–,–
"N#CC(=C(N)Sc1ccccc1N)C(C#N)=C(N)Sc1ccccc1N [MAP2K1 inhibitor, 1,4-diamino-2,3-dicyano-1,4-bis(2-aminophenylthio)butadiene]",strong nuclear localisation of hnRNP-K,infected cells underwent apoptosis,cytoplasmic (and nuclear) HuR,–,–,–
Cc1nnc(C(=O)NC(C)(C)c2nc(C(=O)NCc3ccc(F)cc3)c(O)c(=O)n2C)o1 [Raltegravir],–,–,–,no nuclear hnRNPK over time; also recorded: cytoplasmic hnRNPK,no GFP expression,H2A.X staining in HIV-infected cells [4]: abrogate this effect; lincRNA-p21 expression [5]: no change in lincRNAp21 expression; also recorded: does not affect lincRNAp21 expression
C[C@H](Cn1cnc2c(N)ncnc21)OCP(=O)(O)O [Tenofovir],–,–,–,no nuclear hnRNPK,–,–
Maraviroc,–,–,–,no nuclear hnRNPK,remained uninfected,–
